From the NIST ThermoML archive (doi:10.1021/je700261b)

Experiment: xn = mol fraction of the nth substance listed
Settings: Liquid

CCCCO [butan-1-ol] + O=C=O
Settings	mass density [kg/m3]
342.94 K, 13074 kPa, x2 = 0.5965	795.03
342.94 K, 14051 kPa, x2 = 0.5965	797.49
342.94 K, 15068 kPa, x2 = 0.5965	799.99
342.94 K, 15189 kPa, x2 = 0.8663	716.88
342.94 K, 16052 kPa, x2 = 0.8663	728.37
342.94 K, 16064 kPa, x2 = 0.5965	802.35
342.94 K, 17059 kPa, x2 = 0.8663	740.13
342.94 K, 17076 kPa, x2 = 0.5965	804.68
342.94 K, 18027 kPa, x2 = 0.8663	749.98
342.94 K, 18056 kPa, x2 = 0.5965	806.85
342.94 K, 19037 kPa, x2 = 0.5965	808.99
342.94 K, 19050 kPa, x2 = 0.8663	759.3
342.94 K, 20036 kPa, x2 = 0.8663	767.54
342.94 K, 20067 kPa, x2 = 0.5965	811.18
342.94 K, 21031 kPa, x2 = 0.5965	813.15
342.94 K, 21038 kPa, x2 = 0.8663	775.36
342.94 K, 22050 kPa, x2 = 0.5965	815.2
342.94 K, 22085 kPa, x2 = 0.8663	782.79
342.94 K, 23030 kPa, x2 = 0.5965	817.14
342.94 K, 23032 kPa, x2 = 0.8663	789.07
342.94 K, 24031 kPa, x2 = 0.5965	819.08
342.94 K, 24045 kPa, x2 = 0.8663	795.41
342.94 K, 25028 kPa, x2 = 0.5965	820.94
342.94 K, 25042 kPa, x2 = 0.8663	801.31
343 K, 6024 kPa, x2 = 0.1842	782.23
343 K, 7050 kPa, x2 = 0.1842	783.43
343 K, 8037 kPa, x2 = 0.1842	784.59
343 K, 9052 kPa, x2 = 0.1842	785.73
343 K, 10057 kPa, x2 = 0.1842	786.87
343 K, 11053 kPa, x2 = 0.1842	787.96
343 K, 12027 kPa, x2 = 0.1842	789.03
343 K, 13076 kPa, x2 = 0.1842	790.12
343 K, 14026 kPa, x2 = 0.1842	791.16
343 K, 15081 kPa, x2 = 0.1842	792.24
343 K, 16028 kPa, x2 = 0.1842	793.21
343 K, 17031 kPa, x2 = 0.1842	794.24
343 K, 18020 kPa, x2 = 0.1842	795.22
343 K, 19009 kPa, x2 = 0.1842	796.2
343 K, 20030 kPa, x2 = 0.1842	797.2
343 K, 21066 kPa, x2 = 0.1842	798.2
343 K, 21978 kPa, x2 = 0.1842	799.07
343 K, 23062 kPa, x2 = 0.1842	800.09
343 K, 24031 kPa, x2 = 0.1842	801.02
343 K, 25044 kPa, x2 = 0.1842	801.97
352.77 K, 1022 kPa, x2 = 0.0251	763.98
352.77 K, 2029 kPa, x2 = 0.0251	765.11
352.77 K, 3006 kPa, x2 = 0.0251	766.15
352.77 K, 4015 kPa, x2 = 0.0251	767.17
352.77 K, 5041 kPa, x2 = 0.0251	768.25
352.77 K, 5988 kPa, x2 = 0.0251	769.24
352.77 K, 7026 kPa, x2 = 0.0251	770.25
352.77 K, 8000 kPa, x2 = 0.0251	771.2
352.77 K, 9059 kPa, x2 = 0.0251	772.24
352.77 K, 10017 kPa, x2 = 0.0251	773.14
352.77 K, 11016 kPa, x2 = 0.0251	774.17
352.77 K, 12004 kPa, x2 = 0.0251	775.04
352.77 K, 13003 kPa, x2 = 0.0251	775.95
352.77 K, 14039 kPa, x2 = 0.0251	776.91
352.77 K, 14988 kPa, x2 = 0.0251	777.75
352.77 K, 16084 kPa, x2 = 0.0251	778.74
352.77 K, 17004 kPa, x2 = 0.0251	779.54
352.77 K, 18003 kPa, x2 = 0.0251	780.41
352.77 K, 19004 kPa, x2 = 0.0251	781.28
352.77 K, 20007 kPa, x2 = 0.0251	782.15
352.77 K, 21029 kPa, x2 = 0.0251	783.01
352.77 K, 22044 kPa, x2 = 0.0251	783.86
352.77 K, 22995 kPa, x2 = 0.0251	784.65
352.77 K, 24056 kPa, x2 = 0.0251	785.52
352.77 K, 25098 kPa, x2 = 0.0251	786.41
352.79 K, 18068 kPa, x2 = 0.9698	596.97
352.79 K, 18999 kPa, x2 = 0.9698	619.03
352.79 K, 20007 kPa, x2 = 0.9698	639.88
352.79 K, 21053 kPa, x2 = 0.9698	659.01
352.79 K, 22011 kPa, x2 = 0.9698	674.59
352.79 K, 23058 kPa, x2 = 0.9698	690
352.79 K, 24106 kPa, x2 = 0.9698	703.93
352.79 K, 25050 kPa, x2 = 0.9698	715.49
352.82 K, 6041 kPa, x2 = 0.1842	772.14
352.82 K, 7041 kPa, x2 = 0.1842	773.4
352.82 K, 8024 kPa, x2 = 0.1842	774.6
352.82 K, 9042 kPa, x2 = 0.1842	775.87
352.82 K, 10044 kPa, x2 = 0.1842	777.07
352.82 K, 11026 kPa, x2 = 0.1842	778.23
352.82 K, 12073 kPa, x2 = 0.1842	779.44
